Reference: PMC7926923, “Identification of Active Site Residues of the Siderophore Synthesis Enzyme PvdF and Evidence for Interaction of PvdF with a Substrate-Providing Enzyme” (International Journal of Molecular Sciences, 2021)

Legend:
[1] = biological target: T1, PvdF (Pseudomonas aeruginosa, UniProt Q9I184); experiment: direct injection mass spectrometry of fOHOrn product; type: biochemical; details: 25 uM PvdF, 1 mM OHOrn, 1.5 mM fTHF, 10 mM HEPES pH 8.0, 30 C, 3 h
T1 construct: recombinant from E. coli BL21(DE3), His6 tag kept at N-terminus (His6PvdF, pET-DUET1; also all variants) or C-terminus (PvdFHis6, pET21a); IMAC and SEC; monomer

[2] = biological target: T1, PvdF; experiment: differential scanning fluorimetry, SYPRO Orange; type: binding; details: 10 uM protein, 1.5 mM fTHF, 10 mM HEPES pH 8.0; site not determined; also co-substrate in the activity assay

T1 sequence (Q9I184 entry or part of it): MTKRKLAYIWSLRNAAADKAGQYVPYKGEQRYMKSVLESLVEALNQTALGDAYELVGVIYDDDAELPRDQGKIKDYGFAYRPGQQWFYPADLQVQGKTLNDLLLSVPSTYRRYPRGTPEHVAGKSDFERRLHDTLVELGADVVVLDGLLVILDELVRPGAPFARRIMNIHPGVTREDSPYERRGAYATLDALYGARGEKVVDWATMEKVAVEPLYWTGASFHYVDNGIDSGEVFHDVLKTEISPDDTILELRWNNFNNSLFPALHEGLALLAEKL

Structure (SMILES) | direct injection mass spectrometry of fOHOrn product [1] | thermal shift [2]
N[C@@H](CCCNO)C(=O)O [L-OHOrn] | able to convert OHOrn to fOHOrn with fTHF as the co-substrate | –
Nc1nc2c(c(=O)[nH]1)N[C@@H](CN(C=O)c1ccc(C(=O)N[C@@H](CCC(=O)O)C(=O)O)cc1)CN2 [N^10-formyltetrahydrofolate] | – | addition of fTHF resulted in a significant change in fluorescence of wild-type PvdF
